Results on seven molecules are retold here after patent US12630516B2, “Compounds” (NRG Therapeutics Ltd., priority 2020, dated 2026).

≈ marks a conversion by molar mass, not a printed value.

One data set has as its system mPTP. The experiment in a line: mPTP activity (Ca2+ retention, Fluo5N FLIPR) assay in isolated rat liver mitochondria. Format: biochemical. The note with it: average value from multiple experiments (n ≥ 2). The source says: Pharmacological inhibition or modulation of the mPTP can be measured in well characterised ‘Ca^2+ retention’ assays performed in isolated mitochondria. In vitro, isolated mitochondria rapidly sequester exogenous Ca^2+ until the intramitochondrial Ca^2+ concentration reaches the threshold for mPTP activation. Once the pore is activated, mitochondrial integrity is compromised and the stored Ca^2+ is released. The distribution of Ca^2+ between extra- and intra-mitochondrial compartments can be measured in real time with the use of membrane-impermeant Ca^2+ sensitive fluorescent dyes. Depending on the configuration of the assay, inhibition or modulation of the mPTP either delays the opening of the pore or increases the concentration of Ca^2+ required to induce mPTP opening.
MPTP activity was measured in mitochondria freshly isolated from female Sprague Dawley (250 to 300 gram) rat livers using the following method. Cervical dislocation was performed on the rat. The liver was then perfused in-situ with ˜40 ml cold Dulbecco's Phosphate Buffered Saline (DPBS) prior to dissection and transferred into 30 ml Isolation Buffer (250 mM Sucrose, 10 mM KCl, 1 mM EGTA, 1 mM EDTA, 25 mM HEPES, adjusted to pH 7.5 with 1M NaOH). Each lobe of the liver was then removed from the buffer, minced using tweezers and a scalpel into ˜5 mm pieces then transferred into a 50 ml Potterton dounce homogenization tube on ice containing 30 ml ice-cold centrifugation buffer (300 mM Trehalose, 25 mM HEPES, 1 mM EGTA, 1 mM EDTA, 10 mM KCl, adjusted to pH 7.5 with 1M NaOH and supplemented with 0.1% bovine serum albumin (BSA) and complete protease inhibitor cocktail (one tablet of inhibitor per 50 mls of buffer). Homogenisation was carried out using a teflon pestle at 1800 rpm. The slurry was centrifuged at 800 g for 10 min at 4° C., then the supernatant centrifuged at 10,000 g for 10 min. The pellet was washed once with FLIPR assay buffer (75 mM Mannitol, 25 mM Sucrose, 5 mM Potassium Phosphate Monobasic, 20 mM Tr is base, 100 mM KCl, 0.1% BSA adjusted to pH 7.4 with 5M HCl) centrifuged again, then resuspended in FLIPR assay buffer to a concentration of 8.8 mg/ml protein.
Tested compounds (10 mM stock in DMSO) were serially diluted in DMSO in half log steps to generate 10 test concentrations (final concentrations in assay 30 μM to 1 nM). An intermediate dilution of 5 μl DMSO samples into 247 μl FLIPR assay buffer was carried out prior to transfer of 5 μl into duplicate wells of a 384 well polypropylene assay plate. Control wells were 0.5% (v/v) DMSO and 5 μM cyclosporin A.
A stock mitochondria/Fluo5N assay solution was prepared in 5.6 ml FLIPR assay buffer (at RT) supplemented with succinate disodium salt (10 mM), rotenone (1 μM), Fluo5N pentapotassium salt (2 μM) and 1 ml mitochondria suspension, then transferred (15 μl) into the assay plate containing test compounds and incubated for 10 min at RT. Assay plates were then transferred to a FLIPR Tetra plate reader (Molecular Devices). Dye fluorescence was then measured every 3 sec for a total of 10 min. After 12 sec, a 2.5 μl bolus of CaCl2 (75 μM) was added from a source plate containing 675 μM CaCl2 in FLIPR assay buffer. IC50 values for tested compounds were calculated using the fluorescence value collected at the 10 min timepoint with % inhibition calculated using the DMSO control and cyclosporin A values as […] respectively.

A short description of data set [1]: Hepatocyte clearance assay, primary human hepatocytes. The class given is in vitro ADME. Conditions: average value from two experiments. Here is the method:
(§1) In vitro clearance studies were performed in primary rat and human hepatocytes (BioIVT). Vials of cryopreserved rat or human hepatocytes were thawed in a 37° C. water bath for 2 min. Cells were transferred into thawing medium (Williams' Medium E containing 30% Percoll, 1×GlutaMAX-1, 15 mM HEPES, 5% fetal bovine serum (FBS), 4 μg/ml insulin, 1 μM dexamethasone), centrifuged at 100 g for 10 min then resuspended in culture medium (Leibovitz's L-15 Medium) at a concentration of 0.5×10^6 viable cells/mL (number of viable cells assessed using AO/PI staining). Hepatocytes (198 μL) were transferred into wells of a 96-well non-coated plate and placed in a 37° C. incubator for 10 min. Test compound solutions were prepared from 10 mM stocks in DMSO, diluted to 100 μM in 50% (v/v in water) acetonitrile. Test compound samples (2 μl) were added to each well of hepatocytes and incubated at 37° C. […] Peak areas were determined from extracted ion chromatograms. The slope value, k, was determined by linear regression of the natural logarithm of the remaining percentage of the parent drug vs. incubation time curve. The in vitro half-life (in vitro t½) was determined from the slope value: in vitro t½=0.693/k. […]

Data set [2] is described as follows: PBS and FaSSIF solubility. Format: physicochemical. The note with it: for solubility at 2 h: FaSSIF, kinetic from dmso stock, Fasted state simulated intestinal fluid, 2 hr at 25° C. The protocol:
Test compounds were prepared as 10 mM stocks in DMSO and 15 μl samples transferred in duplicate into 1.5 mL glass flat bottom vials (BioTech Solutions). Fasted state simulated intestinal fluid (FaSSIF) or PBS (pH 7.4) was added to each vial to final volume of 500 μl. One PTFE encapsulated stir stick (V&P Scientific) was placed in each vial before sealing with PTFE/SIL plugs (BioTech Solutions). Vials were shaken at 1100 rpm for 2 hr at 25° C. Samples were then filtered through MultiScreen Solvinert filter plates (Millipore) via vacuum filtration. Aliquots of filtrate (5 μl) plus 5 μl DMSO were diluted in 490 μl 50% acetonitrile in water containing internal standard. The filtrate was analysed and quantified against a standard of known concentration using LC-MS/MS. Solubility values of the test compound and control compound were calculated as follows: [Sample]=(Area ratiossample*INJ VOL STD*DFSample*[STD])/(Area ratio STD*INJ VOLSample).

The nature of data set [3]: Hepatocyte clearance assay, primary rat hepatocytes. Format: in vitro ADME. Conditions: average value from two experiments. The protocol: as §1

In the case of `CO[C@H]1Cc2ccccc2[C@@H]1NC(=O)/C=C/c1ccc2c(Cl)n[nH]c2c1` [Example 72, (E)-3-(3-chloro-1H-indazol-6-yl)-N-((1S,2S)-2-methoxy-2,3-dihydro-1H-inden-1-yl)acrylamide], in the data set with mPTP, the “mPTP Rat liver pIC50” value is on record as 8.2.

Turning to `Cc1n[nH]c2cc(/C=C/C(=O)N[C@@H]3CCCC[C@H]3C)ccc12` (racemic) [Example 43, Racemic-(E)-3-(3-methyl-1H-indazol-6-yl)-N-((1R,2R)-2-methylcyclohexyl)acrylamide], in the data set on mPTP, the “mPTP Rat liver pIC50” value is reported as 6.3.

For `Cc1n[nH]c2cc(/C=C/C(=O)N[C@H]3c4ccccc4OC[C@@H]3C)ccc12` (single isomer, unassigned) [Example 65c], the hepatocyte CLint at 1 µM in data set [1] (primary human hepatocytes (cryopreserved), read-out: Human heps Clint uL/min/10^6 cells) was determined as 9.4 µL/min/1e6 cells; in data set [3] (primary rat hepatocytes (cryopreserved), read-out: Rat heps Clint uL/min/10^6 cells), 37.9 µL/min/1e6 cells. Further, in data set [2], the solubility at 2 h was 9.2 µM (≈ 3.2 µg/mL). For the same molecule, the “mPTP Rat liver pIC50” value in the data set on mPTP is reported as 7.7.

Turning to `Cc1c(F)cccc1NC(=O)/C=C/c1ccc2cn[nH]c2c1` [Comparative Example 1, (E)-N-(2-methyl-3-fluorophenyl)-3-(1H-indazol-6-yl)acrylamide, reference compound], in data set [1], the “Human heps Clint uL/min/10^6 cells” value is reported as 13 uL/min/10^6 cells. For the same molecule, in data set [2] (PBS pH 7.4, 2 hr at 25° C.), the “Solubility PBS uM (pH 7.4)” value was determined as 0.9 uM. The “Rat heps Clint uL/min/10^6 cells” value in data set [3] turned out to be 89 uL/min/10^6 cells.

For the molecule `O=C(/C=C/c1ccc2c(C(F)(F)F)n[nH]c2c1)NC1CCc2ccccc21` (stereo not drawn) [Example 28, (E)-N-(2,3-dihydro-1H-inden-1-yl)-3-(3-(trifluoromethyl)-1H-indazol-6-yl) acrylamide], the “mPTP Rat liver pIC50” value in the data set with mPTP is reported as 6.7.

The molecule `Cc1c(F)cccc1NC(=O)/C=C/c1ccc2oc(=O)[nH]c2c1` [Example 6, (E)-N-(3-fluoro-2-methylphenyl)-3-(2-oxo-2,3-dihydrobenzo[d]oxazol-5-yl)acrylamide] displayed a solubility at 2 h in data set [2] of 18 µM (≈ 5.62 µg/mL). That is a double-digit micromolar value.

For the molecule `O=C(/C=C/c1cc2[nH]nnc2cc1F)NC1CCc2ccccc21` (stereo not drawn) [Example 27, (E)-N-(2,3-dihydro-1H-inden-1-yl)-3-(5-fluoro-1H-benzo[d][1,2,3]triazol-6-yl) acrylamide], the “mPTP Rat liver pIC50” value in the data set with mPTP came out at 6.6.
